According to ChEMBL document CHEMBL1136318, “Synthesis and X-ray crystal structures of substituted fluorobenzene and benzoquinone inhibitors of the tissue factor VIIa complex” (Bioorg Med Chem Lett, 2003):

Columns and labels:
[1] = biological target: Coagulation factor X (Homo sapiens, UniProt P00742); assay: Inhibitory activity against coagulation factor X
[2] = biological target: Prothrombin (Homo sapiens, UniProt P00734); assay: Inhibitory activity against thrombin

Coagulation factor X, sequence (P00742 41-179 limits assumed): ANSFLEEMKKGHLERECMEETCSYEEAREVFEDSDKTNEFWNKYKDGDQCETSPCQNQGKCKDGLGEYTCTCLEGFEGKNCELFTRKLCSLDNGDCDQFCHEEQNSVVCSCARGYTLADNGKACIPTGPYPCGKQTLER
Coagulation factor X, sequence (P00742 235-488 limits assumed): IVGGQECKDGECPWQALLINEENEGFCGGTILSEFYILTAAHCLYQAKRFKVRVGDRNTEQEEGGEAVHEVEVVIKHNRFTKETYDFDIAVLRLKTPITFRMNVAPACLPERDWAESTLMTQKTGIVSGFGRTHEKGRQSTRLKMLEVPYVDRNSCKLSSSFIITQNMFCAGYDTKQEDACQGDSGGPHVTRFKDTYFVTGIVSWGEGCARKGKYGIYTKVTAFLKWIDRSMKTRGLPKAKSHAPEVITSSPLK

Row | IC50 [1] | IC50 [2] | Compound
1 | > 30 µM |  | CC(C)Nc1ccc(-c2cccc(N)c2)c(CC(=O)NCc2ccc(C(=N)N)cc2)c1F
2 |  | > 30 µM | CC(C)/N=C1\C=C(O)C(c2ccccc2)=C(CC(=O)NCc2ccc(C(=N)N)cc2)C1=O
